{"source": "paper PMC5955599", "about": "“The HTLV-1 gp21 fusion peptide inhibits antigen specific T-cell activation in-vitro and in mice” (PLoS Pathogens, 2018)", "key": {"[1]": {"test": "Circular dichroism spectroscopy with CDNN secondary structure analysis", "assay_type": "physicochemical", "conditions": "25μM peptide in 5mM HEPES buffer with 1% LPC", "method": "Fig 6 Detection of the immune modulatory region within the HTLV FP. (A) Sequences of shorter peptides derived from the full length HTLV FP. (B) MOG35-55–antigen specific T-cells were activated by APCs in the presence of HTLV FP derived peptides at 10μM and proliferative responses were assessed as described above. […] The data is presented as mean inhibition of proliferation. n = 12. (C) MOG35-55–antigen specific T cells were activated by either (i) irradiated MOG35-55 presenting APCs (black), (ii) antibodies against CD3 and CD28 (white), or (iii) PMA and Ionomycin (gray) in the presence of HTLV FP5-13 and HIV FP5-13 at 10μM. Proliferative responses were assessed as described above. The HTLV FP inhibits T-cell proliferation induced either through the TCR or downstream from the TCR with equal potencies. The data is presented as mean inhibition of proliferation. n = 12. […] CD spectra were measured at 25μM in 5mM HEPES buffer containing 1% lyso-phosphatidylcholine (LPC). […] (E) MOG35-55–antigen specific T-cells were activated by APCs in the presence of HTLV FP5-13 D/L enantiomers at 10μM and proliferative responses were assessed as described above. Both HTLV FP5-13 enantiomers inhibit T-cells proliferation with equal potencies. The data is presented as mean inhibition of proliferation. n = 12. One-way ANOVA was used for statistical analysis. *P<0.05;**P<0.01;***P<0.001."}, "[2]": {"test_system": "MOG35-55–antigen specific T-cells", "test": "T-bet and Gata3 expression detected by FACS", "assay_type": "cell-based, mouse (C57Bl/6J)", "conditions": "peptide at 10μM, APC activation, n = 3", "method": "(A-B) MOG35-55–antigen specific T-cells were activated by irradiated MOG35-55 presenting APCs, in the presence of the HTLV FP at 10μM. Total RNA was isolated 24 hours following activation and mRNA expression levels were determined by qRT-PCR. The values of each gene were normalized to Rpl13a as a housekeeping control. The HTLV FP reduces TBX21 (T-bet) mRNA expression and elevates GATA3 mRNA expression. The data is presented as arbitrary units. n≥3. (C-H) MOG35-55–antigen specific T-cells were activated by irradiated MOG35-55 presenting APCs, in the presence of either HTLV or HIV FP at 10μM. Samples were fixed in 4% PFA and stained with anti T-bet-APC and anti Gata3-FITC antibodies (C-D) 24, (E-F) 48 and (G-H) 72 hours following activation. Each time point is represented as cell count vs. APC or FITC fluorescence histogram. Analysis was performed using LSR-II flow cytometer (BD) and FlowJo cell analysis software (FlowJo, LLC). The HTLV FP reduces T-bet expression and elevates Gata3 expression. n = 3. One-way ANOVA was used for statistical analysis. ns, not significant; *P<0.05;** P<0.01.\nAntigen-specific T-cells were plated onto round 12-well plates (10^6 cells/ well) and activated with 5x10^5 irradiated (25 gray) APC and 5μg/ml of MOG p35-55 in the presence or absence of relevant peptides. Cells were washed with PBS, blocked (5% Donkey serum, 2% BSA and 0.1% Triton in PBS) and fixed with 4% Paraformaldehyde (PFA) 24 hour following activation. Cells were then stained with Gata3-FITC and T-bet-APC fluorochrome-labeled monoclonal mouse antibodies (purchased from Miltenyi Biotec) according to Miltenyi Biotec protocols. Samples were then collected using LSR-II flow cytometer and analyzed with FlowJo cell analysis software."}, "[3]": {"test_system": "primary mouse bone marrow derived macrophages (BMDM)", "test": "Cytokine secretion from TLR-ligand stimulated BM-derived macrophages (ELISA)", "assay_type": "cell-based, mouse (C57Bl/6J)", "conditions": "HTLV FP at 10μM, stimulated by LTA, LPS or PAM3CSK4 (1 μg/ml), n = 3", "method": "Mouse Femora and tibiae BM cells were isolated from C57Bl/6J mice and cultured in RPMI medium containing FBS (10%), L-glutamine (1%), sodium pyruvate (1%), Pen-strep (1%), and 10 ng/ml recombinant CSF-1 (Peprotech). At day 3, half the medium was replaced, and on day 7, cells were used for in vitro assay, in which 2*10^5 cells were plated per well in a 24-well plate.\nMouse Femora and tibiae BM cells were collected and cultured in RPMI medium containing FBS (10%), L-glutamine (1%), sodium pyruvate (1%), Pen-strep (1%), and 10 ng/ml recombinant CSF-1 (Peprotech). On day 7, cells were stimulated by either (i) LTA, (ii) LPS, or (iii) PAM3CSK4 (1 μg/ml), in the presence of the HTLV FP at 10μM. Media was collected either 5 hours following activation (for TNF-α detection) or 22 hour following activation (for IL-6 detection) and secretion levels were determined according to standard protocols from R&D systems.\nSupplementary file ppat.1007044.s002.tif: S2 Fig BM-derived macrophages activation is not affected by HTLV FP treatment. […] Media was collected either 5 hours following activation (for TNF-α detection) or 22 hour following activation (for IL-6 detection) and cytokines secretion was measured by ELISA assay. […]"}, "[4]": {"test_system": "MOG35-55–antigen specific T-cells", "test": "In-vitro T-cell proliferative response (H3-thymidine incorporation)", "assay_type": "cell-based, mouse (C57Bl/6J)", "conditions": "peptide at 10μM"}, "[5]": {"conditions": "CD 190–260 nm, CDNN, relative amount of structure out of 100%"}}, "note": "“Also recorded” adds a separate entry of the source."}
{"sequence": "AVPVAVWLVSALAMGAGVAGGITGSMSLASGKS [HTLV FP, gp21 fusion peptide of HTLV-1, MT-2 isolate]", "values": [{"measurement": "Antiparallel β-Sheet", "setting": "[1]; [5]", "value": 2.1, "unit": "%"}, {"measurement": "Parallel β-Sheet", "setting": "[1]; [5]", "value": 3.3, "unit": "%"}, {"measurement": "Random-coil", "setting": "[1]; [5]", "value": 13, "unit": "%"}, {"measurement": "α-Helix", "setting": "[1]; [5]", "value": 68.6, "unit": "%"}, {"measurement": "β-turn", "setting": "[1]; [5]", "value": 13, "unit": "%"}, {"measurement": "secondary structure in a membrane mimetic environment", "setting": "[1]; CD", "value": "exhibited an α-helical structure"}, {"measurement": "Gata3 expression (protein), 24 hours", "setting": "[2]; 24 hours following activation", "value": "elevated Gata3 expression"}, {"measurement": "T-bet expression (protein), 24 hours", "setting": "[2]; 24 hours following activation", "value": "reduced T-bet expression"}, {"measurement": "Gata3 expression (protein), 48 hours", "setting": "[2]; 48 hours following activation", "value": "elevated Gata3 expression"}, {"measurement": "T-bet expression (protein), 48 hours", "setting": "[2]; 48 hours following activation", "value": "reduced T-bet expression"}, {"measurement": "Gata3 expression (protein), 72 hours", "setting": "[2]; 72 hours following activation", "value": "elevated Gata3 expression"}, {"measurement": "T-bet expression (protein), 72 hours", "setting": "[2]; 72 hours following activation", "value": "no difference was observed"}, {"measurement": "TNFα secretion from BMDM", "setting": "[3]; media 5 hours following activation", "value": "had no effect on cytokine secretion"}, {"measurement": "IL6 secretion from BMDM", "setting": "[3]; media 22 hour following activation", "value": "had no effect on cytokine secretion"}, {"measurement": "inhibition of T-cell proliferation, activation by PMA and Ionomycin", "setting": "[4]; 50ng/mL PMA with 1μM ionomycin, n = 12", "value": "inhibited T-cell proliferation induced at all three levels of activation with equal potency"}, {"measurement": "inhibition of T-cell proliferation, activation by antibodies against CD3 and CD28", "setting": "[4]; CD3 and CD28 antibodies 2μg/ml, n = 12", "value": "inhibited T-cell proliferation induced at all three levels of activation with equal potency"}, {"measurement": "inhibition of T-cell proliferation, activation by MOG35-55 presenting APCs", "setting": "[4]; irradiated MOG35-55 presenting APCs, mean inhibition of proliferation, n = 12, 10 µM", "value": "inhibit T-cell proliferation with equal potency to that of HIV’s FP and significantly stronger than the BLV FP; also recorded: inhibited T-cell proliferation induced at all three levels of activation with equal potency; also recorded: inhibited both T-cell proliferation and IFN-γ secretion with higher potency than the HTLV Scr; also recorded: inhibit T-cell proliferation with higher potency than HTLV FP9-22 and HTLV FP14-22"}]}
